Laboratory results taken from patent US12264185B2, “Stabilized BCL9 peptides for treatment of aberrant Wnt signaling” (WntRx Pharmaceuticals Inc., priority 2015, dated 2025).
Where “and” joins values, the source holds several entries; their conditions need not be identical. Equal values may be shown once. Read-outs that look alike come from different tables or passages of the source.

Tests used:
NCI-H1299-Luc cells = assay: NCI-H1299-Luc orthotopic model in balb/c nude mice; format: in vivo; settings: 15 mg/kg i.v. daily, 10 days
Description: Orthotopic mouse models are useful to visualize the effect of an anti-tumor compound on a tumor implanted in a mouse and to assess the effect of the compound on tumor metastasis. An orthotropic model utilizing the NCI-H1299-Luc cell line (non-small-cell lung carcinoma cell line expressing luciferase) was selected for this experiment. Upon uptake of luciferin substrate, these cells are capable of producing bioluminescence. Proliferation of the NCI-H1299 cell line is dependent on Pygopus (Pygo) 2/β-catenin transcription activity, in which TCF-1 transcription factors (BCL9, β-cat and Pygo) form a transcription complex to initiate transcription.
The mice were about 5 weeks of age. NCI-H1299-Luc cells (5×10^6) in 50 μL in PBS were injected into each mouse lung with a syringe.
The bioluminescence intensity (total Flux [p/s]) of each mouse was measured periodically throughout the study according to manufacturer protocol (Xenogen ivis imaging system, PerkinElmer).

[1] = tested on: patient derived colon cancer cells; assay: Patient derived xenograft (PDX) colon cancer model in NOD/SCID mice; format: in vivo; settings: 15 mg/kg i.v. daily
Description: To assess whether WX-024 is also applicable to tumor derived from human patients, a xenograft animal model inoculated with patient derived colon cancer cells was exposed to WX-024. Samples derived from four different colon cancer patients were screened for biomarkers that indicate an elevated level of canonical Wnt/β-catenin signaling. […] The samples were also stained for nuclear co-localization of BCL9 and β-catenin. […] Male NOD/SCID mice at about 5 weeks of age were […] with colon cancer cells derived from patient #8. Briefly, the selected CRC tumor samples from FIG. 28A were sliced into 3 mm^3 fragments and subcutaneously implanted onto the right flank of NOD/SCID mice. […] Each moue was given a daily intravenous administration for more than 31 days. […] At the end of the study, the mice were sacrificed and tumor samples were collected.

TNF-alpha/JNK = TNF-alpha/JNK transcription assay (AP1-bla ME-180 cell line); format: cell-based
Description: (§1) In these assays, the trifluoroacetic salt form of WX-024 was used.

[2] = Toxicokinetics, 14 days i.p., female balb/c mice; settings: for half-life: female, balb/c, mouse, plasma, ip
CT26 cells = assay: cells
Description: CT26 cells were grown in F-bottom plates over 5 days. […] CellTiterGlo (Promega) cell viability assay. […] Doxorubicin is a known inhibitor of cell growth and was included as a control.

in vivo [3] = settings: male, ICR, mouse
Description: The tail vein was used for i.v. injections. […] Following injections, blood samples were obtained via the retro-orbital vein at 5 min, 1, 2, 4, 6, 8, 12, and 24 hours postdose. Plasma was obtained from the blood samples following mixing with sodium heparin and centrifugation.
LC analysis was done using an Agilent 100 HPLC. MS analysis was done using an AB Sciex API 4000. Calibration standards were prepared by serial dilution.
The maximum observed concentration (Cmax), terminal half-life (T1/2), total body clearance (CL), volume of distribution (Vz), area under the curve from the time of dosing to the last measurable concentration (AUC0-t), area under the curve from the time of dosing extrapolated to infinity (AUC0-inf), and bioavailability were calculated using noncompartmental analysis modules in the FDA-certified pharmacokinetic program WinNonlin Professional v5.2 (Pharsight).
Briefly, the mice were administered 1 mg/kg or 5 mg/kg intravenously, or 5 mg/kg intraperitoneally. Blood samples were collected at 15 min, 1, 2, 3, 6, 8, 12, and 24 hours post administration.

HCT116 cells = format: cell-based
Description: The additional polypeptides were tested in a CellTiterGlo luminescent cell viability assay (Promega). ICG001 was used as a positive control in this assay.

JAK/STAT = JAK/STAT transcription assay (SIE-bla ME-180 cell line); format: cell-based
Description: as §1

in vivo [4] = settings: female, balb/c, mouse, ip
TGF-beta = TGF-beta transcription assay (SBE-bla HEK 293T cell line); format: cell-based
Description: as §1

Wnt/β-catenin signaling = assay: GeneBLAzer beta-lactamase Wnt transcription reporter assay, LEF/TCF-bla HCT-116 cells; format: cell-based
Description: ICG001 was used as a comparison. The GeneBLAzer uses CellSensor™ LEF/TCF-bla HCT-116 cells that contain a beta-lactamase (BLA) reporter gene under the control of the β-catenin/LEF/TCF response element stably integrated into HCT-116 cells, as shown in FIG. 5A. These cells constitutively express beta-lactamase and can be used to detect agonists and antagonists of the Wnt/β-catenin signaling pathway. The GeneBLAzer assay provides a ratiometric reporter response involving a two-color (blue/green) readout of stimulated and unstimulated cells.
LEF/TCF-bla HCT-116 cells were plated in assay medium (Invitrogen) on clear-bottom plates and incubated overnight at 37° C. […] Cells were next incubated with the Wnt agonist, mWnt3a (provided in the GeneBLAzer kit) for 5 hours at 37° C. Substrate mixture (containing LiveBLAzer™ B/G substrate that employs CCF4-AM, a FRET substrate for beta-lactamase) was added to the wells, and the plate was incubated for 2.5 hours at room temperature in the dark. Black-walled, clear-bottom, 384-well plates (Corning Costar) were used with scanning done with a Spectramax M2. Plates were scanned first (Scan 1 in the blue channel) with excitation filter 409/20 nm and emission filter 460/40 nm. Plates were then scanned (Scan 2 in the green channel) with excitation filer 409/20 nm and emission filter 530/30 nm.

[5] = IP-10 mg/kg, after the first dosing (day 1)
[6] = IP-15 mg/kg, after the first dosing (day 1)
[7] = IP-20 mg/kg, after the first dosing (day 1)

For CC[C@H](C)[C@@H]1NC(=O)[C@@](C)(NC(=O)[C@H](CCCNC(=N)N)NC(=O)[C@H](CC(C)C)NC(=O)[C@@H](NC(=O)[C@H](CCC(N)=O)NC(=O)[C@H](CC(C)C)NC(C)=O)[C@@H](C)O)CCCC=CCCC[C@@](C)(C(=O)N[C@@H](CC(C)C)C(=O)N[C@@H](Cc2ccc3ccccc3c2)C(N)=O)NC(=O)[C@H](CCCNC(=N)N)NC(=O)[C@H](CCC(N)=O)NC1=O [WX-024, LQTLRXaa1IQRXaa2L], the “tumor formation and growth (bioluminescence total flux)” value (NCI-H1299-Luc cells) was “almost completely blocked tumor formation and growth in vivo”, the “CD44 expression in tumor samples” value [1] was “capable of reducing CD44 expression” and the “average tumor growth inhibition rate” value ([1]; after 31 days of dosing) was 75.6%. For the same molecule, the IC50 (TNF-alpha/JNK; AP1-bla ME-180, TNF-alpha stimulation, trifluoroacetic salt form, read-out: IC50 (nM), TNP-alpha/JNK pathway) was > 1000 nM, the IC50 (TNF-alpha/JNK; Example 4.5, read-out: IC50, TNF-alpha/JNK transcription assay) was > 10000 nM and the IC50 (TNF-alpha/JNK; summary, Example 6, read-out: IC50, TNF-α/JNK reporter assay) was > 100 nM. For the same molecule, the AUCINF [2, 5] was 117 µg·h/mL, the AUClast [2, 5] was 114333 ng·h/mL and the Cmax [2, 5] was 11390 ng/mL. For the same molecule, the “Terminal t1/2” value [2, 5] was 4.52 h, the Tmax [2, 5] was 1.50 h and the Cmax ([2]; IP-10 mg/kg, after the last dosing (day 14)) was 11360 ng/mL. The AUCINF [2, 6] was 129.1 µg·h/mL, the AUClast [2, 6] was 118,033 hr*ng/mL and the Cmax [2, 6] was 9767 ng/mL. For the same molecule, the “Terminal t1/2” value [2, 6] was 7.59 h, the AUCINF [2, 7] was 175.333 µg·h/mL and the AUClast [2, 7] was 162,333 hr*ng/mL. For the same molecule, the Cmax [2, 7] was 12733 ng/mL, the “Terminal t1/2” value [2, 7] was 6.47 h and the Tmax [2, 7] was 2.67 h. For the same molecule, the half-life ([2]; 10 mg/kg) was 6.97 h, the half-life ([2]; 15 mg/kg) was 4.25 h and the half-life ([2]; 20 mg/kg) was 4.55 h. For the same molecule, the IC50 (CT26 cells) was 1750 nM, the half-life (in vivo [3]) was 2.4 to 2.5 h and the IC50 (HCT116 cells) was 1920 nM. The “inhibition of cell growth” value (HCT116 cells; HCT116 cells, CellTiterGlo) was “particularly effective”, the IC50 (JAK/STAT; Example 4.5, read-out: IC50, JAK/STAT transcription assay) was > 10000 nM and the IC50 (JAK/STAT; summary, Example 6, read-out: IC50, JAK/STAT reporter assay) was > 100 nM. The AUC(0-inf) (in vivo [4]; 10 mg/kg) was 41.1 µg·h/mL, the AUC(0-t) (in vivo [4]; 10 mg/kg) was 37.8 µg·h/mL and the Tmax (in vivo [4]; 10 mg/kg) was 2 h. For the same molecule, the AUC(0-inf) (in vivo [4]; 15 mg/kg) was 109 µg·h/mL, the AUC(0-t) (in vivo [4]; 15 mg/kg) was 107 µg·h/mL and the Cmax (in vivo [4]; 15 mg/kg) was 8750 ng/mL. The Tmax (in vivo [4]; 15 mg/kg) was 3.33 h, the AUC(0-inf) (in vivo [4]; 20 mg/kg) was 161 µg·h/mL and the AUC(0-t) (in vivo [4]; 20 mg/kg) was 160 µg·h/mL. For the same molecule, the Cmax (in vivo [4]; 20 mg/kg) was 13700 ng/mL, the Tmax (in vivo [4]; 20 mg/kg) was 4 h and the IC50 (TGF-beta; Example 4.5, read-out: IC50, TGF-beta transcription assay) was > 10000 nM. For the same molecule, the IC50 (TGF-beta; SBE-bla HEK 293T, TGF-beta 1 stimulation, trifluoroacetic salt form, read-out: IC50 (nM), TGF-beta pathway) was > 3160 nM, the IC50 (TGF-beta; summary, Example 6, read-out: IC50, TGF-0 reporter assay) was > 100 nM and the IC50 (Wnt/β-catenin signaling; LEF/TCF-bla HCT-116 cells, read-out: IC50, Wnt transcription) was 191 nM and ~200 nM. The IC50 (Wnt/β-catenin signaling; acetate salt form, read-out: IC50, Wnt transcription inhibition) was 292 nM and the IC50 (Wnt/β-catenin signaling; hydrochloric salt, read-out: IC50, Wnt transcription inhibition) was 313 nM.
